Common to all, as to format: cell-based, Toxoplasma gondii
Data set [1] relates to T. gondii tachyzoites, RH strain. As to the kind of experiment: Resazurin viability assay on free T. gondii tachyzoites. The text has this: Untreated parasites served as a negative control.
On the technique in general: Alamar Blue is a resazurin reagent that responds to reducing activity.

In data set [2] the test system is T. gondii (RH strain) in BeWo cells. Description: Infection of BeWo cells by T. gondii, infected cells counted by fluorescence microscopy. The settings on record: compound at IC50, untreated control 64 ± 6. The protocol: The effect of the compounds on the infection of BeWo trophoblast cells by T. gondii and T. cruzi was assessed. The DNA of T. gondii and T. cruzi was quantified in infected BeWo cells treated for 24 hours under two conditions: co-incubation and post-infection treatment. […] Fluorescence microscopy was employed to quantify the number of infected cells. The resulting images were analyzed using ImageJ software to count both infected and uninfected cells.
For the microscopic analysis of BeWo cells infected with T. cruzi, the cells were washed with PBS to remove the supernatant, fixed with 90% cold methanol, rewashed with PBS, and incubated for 5 minutes with 1 µg/mL—1 4,6-diamidino-2-phenylindole (DAPI) (Molecular Probes). To analyze BeWo cells infected with T. gondii, cells were fixed with 90% cold methanol, washed with PBS containing 0.05% Tween, and blocked using 3% BSA for 1 hour at 37°C. Then, they were incubated with the primary monoclonal antibody Toxoplasma gondii (TP3): sc-52255 at a dilution of 1:500 with 1% BSA overnight at 4°C. Afterward, the samples were incubated with the FITC anti-mouse IgG secondary antibody at a dilution of 1:100 with 1% BSA for 1 hour at 37°C. Finally, they were washed with PBS containing 0.05% Tween and incubated for 5 minutes with DAPI. Subsequently, the sections were mounted in Vectashield (ScyTek ACA). Sections for the analysis of cell infection by T. cruzi and T. gondii were observed under an epifluorescence microscope (Motic BA 310), and images were captured with a Motic 5 camera. T. cruzi amastigotes were identified by their morphology, including nuclear size and the presence of a kinetoplast, and were analyzed and quantified using ImageJ. At least 500 cells per condition were analyzed, and infected and non-infected cells were counted for every 100 cells ([35], [70]).
Cells or HPE were exposed to parasites. […] The following treatment conditions were used in both infection models. […] Untreated cells or HPE served as a negative control, and the compounds’ activity was compared with the reference drugs (NFX and PMN).

The test system of data set [3] is T. gondii tachyzoites (strain RH). As to the kind of experiment: Intracellular ROS generation (DCF probe) in T. gondii. The note with it: compound at IC50, menadione 20 µM, 40 minutes, vs untreated control. On the procedure:
ROS detection was performed using the 2′,7′-dichlorodihydrofluorescein diacetate (DCFH2-DA) method ([45]). For the assay, Dm28c trypomastigotes and tachyzoites were seeded in 96-well plates at a density of 10⁶ parasites/mL. In contrast, BeWo cells were seeded at 5 × 10⁴ cells per well, using the previously described culture medium.
After incubation with 20 µM DCFH2-DA for 15 minutes at 37°C, the parasites were centrifuged at 3,500 × g, washed twice with PBS (pH 7.4), and subsequently transferred to Nunc 96-well fluorescence plates. Meanwhile, after 24 hours of incubation at 37°C and 5% CO₂, the culture medium of BeWo cells was replaced, and 20 µM DCFH2-DA solution was added, followed by a 15 minute incubation at 37°C. The cells were then washed with PBS at pH 7.4. As a positive control, 20 µM menadione was used, while the negative control consisted of culture medium without compounds.
Over time, the area under the fluorescence increase curve was determined using Origin 8 software (version 9.2), with normalization relative to the control. The results correspond to three independent experiments' mean ± standard deviation (SD).

The molecule `C/C(=N\NC(N)=S)c1c(O)c2cc([N+](=O)[O-])ccc2oc1=O` [Compound 1, (E)−2-(1-(4-hydroxy-6-nitro-2-oxo-2H-chromen-3-yl)ethylidene)hydrazine-1-carbothioamide] had an IC50 in data set [1] (Toxoplasma gondii, extracellular tachyzoites RH strain, 24 h, resazurin) of 17.3 ± 0.5 µM. This molecule also yielded a viability at 100 µM in data set [1] (Toxoplasma gondii, tachyzoites RH, 100 µM, 24 h) of 24.3 ± 10.4%. In addition, in data set [1] (parasite T. gondii), the “SI = BeWo CC50/parasite IC50” value came to 22.3 and the “SI = EA.hy926 CC50/parasite IC50” value is over 23.1. Also, in data set [2] (co-incubation 24 h), the “Infected cells (%)” value was found to be 32 ± 7%. For the same molecule, the “Infected cells (%)” value in data set [2] (post-infection treatment 24 h) is reported as 52 ± 4%. Also, the “ROS generation (DCF fluorescence)” value in data set [3] was “increase in ROS levels, albeit lower than the positive control”.

Broadly, the IC50 is the point on the concentration scale where inhibition reaches its midpoint. Usually viability stands for the share of living cells, or the viability signal relative to a control. High values mean less harm to the cells, low ones more harm to the cells.

Values taken from publication PMC12406664, “New derivatives of 6-nitrocoumarin-3-thiosemicarbazone exhibit improved antiparasitic activity in the placenta against Trypanosoma cruzi and Toxoplasma gondii” (Antimicrobial Agents and Chemotherapy, 2025).
